Our source for the Activity and EC50 values is ChEMBL document CHEMBL4152359, “Synthesis and biological evaluation of novel heteroring-annulated pyrrolino-tetrahydroberberine analogues as antioxidant agents” (Bioorg Med Chem, 2018).

Activity calls are given as the source filed them. The rule behind the calls is not given here.

Series [1] deals with NCTC-2544. The experiment in a line: Antioxidant activity in human NCTC-2544 cells assessed as reduction in intracellular oxidation level at 30 uM after 1 hr by DCFH-DA staining based fluorescence assay. The format is functional, cell-based.
The test system of series [2] is NCTC-2544. The experiment in a line: Antioxidant activity in human NCTC-2544 cells assessed as reduction in intracellular oxidation level at 30 uM after 24 hrs by DCFH-DA staining based fluorescence assay. The format is functional, cell-based.
Series [3] relates to NCTC-2544. The experiment in a line: Antioxidant activity in human NCTC-2544 cells assessed as reduction in H2O2-induced ROS level at 30 uM preincubated up to 3 hrs followed by H2O2 addition measured for 30 mins by DCFH-DA staining based fluorescence assay. The format is functional, cell-based.
Series [4] in a line: Antioxidant activity assessed as trolox equivalents of AAPH-induced radical scavenging activity by ORAC-FL assay. The format is functional.
Series [5] deals with NCTC-2544. The experiment in a line: Cytotoxicity against human NCTC-2544 cells assessed as reduction in cell viability at 30 uM up to 72 hrs by WST8 assay. The class given is cell-based. The following applies: nctc-2544, 72 h.
The test system of a further series is DNA. Kind of series: Antioxidant activity assessed as protection against ferrous ions and dioxygen-induced free radical-mediated DNA strand break in pEMBL8 supercoiled DNA preincubated with DNA followed by (NH4)2Fe(SO4)2.6H2O addition measured after 6 mins by ethidium bromide staining based agarose gel electrophoresis method. The format is functional.
Series [6] relates to NCTC-2544. The experiment in a line: Antioxidant activity in human NCTC-2544 cells assessed as reduction in H2O2-induced ROS level at 30 uM preincubated with cells followed by H2O2 addition measured after 24 hrs by DCFH-DA staining based fluorescence assay. The format is functional. Details: scale not given: the % may be the effect or the level left.
The subject of series [7] is NCTC-2544. The experiment in a line: Antioxidant activity in human NCTC-2544 cells assessed as reduction in intracellular oxidation level at 30 uM after 3 hrs by DCFH-DA staining based fluorescence assay. The format is functional, cell-based.
In series [8] the test system is NCTC-2544. The experiment in a line: Cytotoxicity against human NCTC-2544 cells assessed as reduction in cell viability at 30 uM at 72 hrs by WST8 assay relative to control. The class given is cell-based. The following applies: nctc-2544, 72 h. In general terms: Formazan colour is commonly taken as a measure of viable cells.

On to `CCOC(=O)C1=C(C)N(NC(=O)OC(C)(C)C)C23c4cc5c(cc4CCN2Cc2c(ccc(OC)c2OC)C13)OCO5` (centres undefined), for which the result in the series with NCTC-2544 [1], in the series with NCTC-2544 [2], with NCTC-2544 [3] and in the series with NCTC-2544 [7] was Active. Also, the Activity was 1560 equiv in [4], “Non-Toxic” in the series with NCTC-2544 [5] and 37% with NCTC-2544 [6]. The EC50 in the series with DNA was determined as 74 µM.
`COC(=O)C1=C(C)N(NC(=O)Nc2ccccc2)C23c4cc5c(cc4CCN2Cc2c(ccc(OC)c2OC)C13)OCO5` (centres undefined): the outcome in the series with NCTC-2544 [3] was Active. In addition, the Activity was 1160 equiv in series [4] and “Non-Toxic” with NCTC-2544 [5]. Moreover, the EC50 with DNA was 63 µM. The result in the series with NCTC-2544 [6] was inactive.
Taken in the same sequence, the figures for `COc1ccc2c(c1OC)CN1CCc3cc4c(cc3C13C2C(C(=O)Nc1ccccc1)=C(C)N3NC(=O)Nc1ccccc1)OCO4` (centres undefined) were “Active”, 185 equiv, “Non-Toxic”, 140 µM and “inactive”.
Taken in the same sequence, the figures for `COC(=O)NN1C(C)=C(C(=O)OC)C2c3ccc(OC)c(OC)c3CN3CCc4cc5c(cc4C231)OCO5` (centres undefined) were “Active”, 855 equiv, “Non-Toxic”, 683 µM and “inactive”.
Consider `CCOC(=O)NN1C(C)=C(C(=O)OCC)C2c3ccc(OC)c(OC)c3CN3CCc4cc5c(cc4C231)OCO5` (centres undefined), for which the result in the series on NCTC-2544 [1] and in the series with NCTC-2544 [3] was Active. For the same molecule, the results for the Activity (in series [4]; with NCTC-2544 [5]) were 955 equiv and “Non-Toxic”, respectively. For the same molecule, the concentration giving a half-maximal response (EC50) in the series with DNA amounted to 407 µM. The result in the series on NCTC-2544 [6] was inactive.
As for `COc1ccc2c(c1OC)CN1CCc3cc4c(cc3C13C2C(P(=O)(OC)OC)=C(C)N3NC(=O)OC(C)(C)C)OCO4` (centres undefined), the figures for the Activity (in the series with NCTC-2544 [8]; in series [4]) were 35% and 1130 equiv, respectively. For the same molecule, the result in the series on NCTC-2544 [3] was Active. Moreover, in the series on DNA, the EC50 is 196 µM. In the series on NCTC-2544 [6], the result was inactive.
Consider `COC(=O)C1=C(C)N(NC(=O)OC(C)(C)C)C23c4cc5c(cc4CCN2Cc2c(ccc(OC)c2OC)C13)OCO5` (centres undefined), for which, in the series on NCTC-2544 [3], the result was Active. Also, the figures for the Activity (in series [4]; with NCTC-2544 [5]) were 1470 equiv and “Non-Toxic”, respectively. The EC50 with DNA turned out to be 119 µM. The outcome in the series with NCTC-2544 [6] was inactive.
On to `COc1ccc2c(c1OC)CN1CCc3cc4c(cc3C1C2)OCO4` (centres undefined) [TETRAHYDROBERBERINE], for which the outcome in the series on NCTC-2544 [2] and in the series on NCTC-2544 [6] was inactive. In the series on NCTC-2544 [3], the result was Active. Also, in series [4], the Activity amounted to 1580 equiv. In addition, the EC50 in the series on DNA worked out at 93 µM.

The term EC50 denotes the concentration that produces a half-maximal response.
